Measurements from ChEMBL document CHEMBL5154678, “Lysine Stapling Screening Provides Stable and Low Toxic Cationic Antimicrobial Peptides Combating Multidrug-Resistant Bacteria In Vitro and In Vivo” (J Med Chem, 2022).
Values after ≈ are worked out from the molar mass of the structure shown. Active and inactive are the calls of the source. The rule behind the calls is not given here. Starred links: 1 amine or outer side, 2 acyl side, 3 side chain; linkers in the order of their positions; H or OH if unused. Positions of bridges follow the written chain, without caps; N, C: chain ends. Non-standard residues stand in square brackets, D forms with d. Residues, ends and D or L forms follow the SMILES beside them. X1 = O=C([C@H](CCCCNCC=[*:3])N[*:1])[*:2]

Key:
[1] = tested on: Staphylococcus aureus; experiment: Antibacterial activity against methicillin-resistant Staphylococcus aureus assessed as inhibition of bacterial growth incubated for 16 hrs by broth microdilution method; format: functional
[2] = tested on: Staphylococcus aureus; experiment: Antibacterial activity against Staphylococcus aureus BNCC 186335 assessed as inhibition of bacterial growth incubated for 16 hrs by broth microdilution method; format: functional
[3] = tested on: Listeria monocytogenes; experiment: Antibacterial activity against Listeria monocytogenes assessed as inhibition of bacterial growth incubated for 16 hrs by broth microdilution method; format: functional
[4] = tested on: Pseudomonas aeruginosa; experiment: Antibacterial activity against Pseudomonas aeruginosa BNCC 125486 assessed as inhibition of bacterial growth incubated for 16 hrs by broth microdilution method; format: functional
[5] = tested on: Escherichia coli; experiment: Antibacterial activity against Escherichia coli BNCC 133264 assessed as inhibition of bacterial growth incubated for 16 hrs by broth microdilution method; format: functional
[6] = tested on: Escherichia coli; experiment: Antibacterial activity against cephalosporin-resistant Escherichia coli BNCC 133264 assessed as inhibition of bacterial growth incubated for 16 hrs by broth microdilution method; format: functional
[7] = tested on: Erythrocyte; experiment: Hemolytic activity against human RBC assessed as concentration required to cause 10% hemolysis; format: toxicity, cell-based
[8] = tested on: Staphylococcus aureus; experiment: Antibacterial activity against methicillin-resistant Staphylococcus aureus BNCC 186335 assessed as inhibition of bacterial growth incubated for 4 hrs in presence of 25% plasma by broth microdilution method; format: functional
[9] = tested on: HEK-293T; experiment: Cytotoxicity against human HEK293T cells assessed as cell survival rate at 256 ug/ml incubated for 24 hrs by MTT assay; format: toxicity, cell-based; details: dose 256 µg/ml
[10] = tested on: Cell membrane; experiment: Induction of membrane disruption in multidrug-resistant Acinetobacter baumannii assessed as loss of cell integrity at 16 ug/ml measured after 2 hrs by SEM analysis; format: subcellular; details: dose 16.0 µg/ml
[11] = tested on: Cell membrane; experiment: Induction of membrane disruption in methicillin-resistant Staphylococcus aureus BNCC 186335 assessed as loss of cell integrity at 16 ug/ml measured after 2 hrs by SEM analysis; format: subcellular; details: dose 16.0 µg/ml
[12] = tested on: Cell membrane; experiment: Induction of membrane damage in multidrug-resistant Acinetobacter baumannii assessed as concentration of stained cells incubated for 2 hrs by propidium iodide staining based flow cytometer assay; format: subcellular; details: dose 16.0 µg/ml
[13] = tested on: Cell membrane; experiment: Induction of membrane damage in methicillin-resistant Staphylococcus aureus BNCC 186335 assessed as concentration of stained cells incubated for 2 hrs by propidium iodide staining based flow cytometer assay; format: subcellular
[14] = Stability in human plasma assessed as half life measured after 24 hrs by HPLC analysis; format: ADME, cell-free
[15] = tested on: HEK-293T; experiment: Cytotoxicity against human HEK293T cells assessed as cell survival rate at 128 ug/ml incubated for 24 hrs by MTT assay relative to control; format: toxicity, cell-based; details: dose 128 µg/ml
[16] = tested on: Enterococcus faecium; experiment: Antibacterial activity against multidrug-resistant Enterococcus faecium assessed as inhibition of bacterial growth incubated for 16 hrs by broth microdilution method; format: functional
[17] = tested on: Staphylococcus aureus; experiment: Antibacterial activity against multidrug-resistant Staphylococcus aureus BNCC 186335 assessed as inhibition of bacterial growth incubated for 16 hrs by broth microdilution method; format: functional
[18] = tested on: Klebsiella pneumoniae; experiment: Antibacterial activity against multidrug-resistant Klebsiella pneumoniae assessed as inhibition of bacterial growth incubated for 16 hrs by broth microdilution method; format: functional
[19] = tested on: Acinetobacter baumannii; experiment: Antibacterial activity against multidrug-resistant Acinetobacter baumannii assessed as inhibition of bacterial growth incubated for 16 hrs by broth microdilution method; format: functional
[20] = tested on: Pseudomonas aeruginosa; experiment: Antibacterial activity against multidrug-resistant Pseudomonas aeruginosa BNCC 125486 assessed as inhibition of bacterial growth incubated for 16 hrs by broth microdilution method; format: functional
[21] = tested on: Escherichia coli; experiment: Antibacterial activity against multidrug-resistant Escherichia coli BNCC 133264 assessed as inhibition of bacterial growth incubated for 16 hrs by broth microdilution method; format: functional
[22] = tested on: Acinetobacter baumannii; experiment: Bactericidal activity against multidrug-resistant Acinetobacter baumannii assessed as log reduction in colony forming unit at 32 ug/ml measured after 20 mins by time kill assay; format: functional, organism-based; details: dose 32.0 µg/ml
[23] = tested on: Staphylococcus aureus; experiment: Bactericidal activity against methicillin-resistant Staphylococcus aureus BNCC 186335 assessed as log reduction in colony forming unit at 32 ug/ml measured after 30 mins by time kill assay; format: functional, organism-based; details: dose 32.0 µg/ml
[24] = tested on: Cell membrane; experiment: Induction of membrane damage in methicillin-resistant Staphylococcus aureus BNCC 186335 assessed as disruption of membrane integrity at 16 ug/ml incubated for 2 hrs by propidium iodide staining based assay; details: dose 16.0 µg/ml
[25] = tested on: Staphylococcus aureus; experiment: Drug resistance development in Staphylococcus aureus assessed as change in MIC at sub-MIC concentration measured after 60 passages; format: functional, organism-based
[26] = tested on: Staphylococcus aureus; experiment: Antibacterial activity against methicillin-resistant Staphylococcus aureus BNCC 186335 infected in mouse C57BL/6 assessed as reduction in intracellular bacterial burden in kidney at 2 mg/kg ,ip incubated for 24 hrs; format: functional, organism-based
[27] = tested on: Staphylococcus aureus; experiment: Antibacterial activity against methicillin-resistant Staphylococcus aureus BNCC 186335 infected in mouse C57BL/6 assessed as reduction in intracellular bacterial burden in lung at 2 mg/kg ,ip incubated for 24 hrs; format: functional, organism-based
[28] = tested on: Staphylococcus aureus; experiment: Antibacterial activity against methicillin-resistant Staphylococcus aureus BNCC 186335 infected in mouse C57BL/6 assessed as reduction in intracellular bacterial burden in spleen at 2 mg/kg ,ip incubated for 24 hrs; format: functional, organism-based
[29] = tested on: Staphylococcus aureus; experiment: Antibacterial activity against methicillin-resistant Staphylococcus aureus BNCC 186335 infected in mouse C57BL/6 assessed as reduction in intracellular bacterial burden in liver at 2 mg/kg ,ip incubated for 24 hrs; format: functional, organism-based
[30] = tested on: HEK-293T; experiment: Cytotoxicity against human HEK293T cells assessed as cell survival rate at 64 Ug/ml incubated for 24 hrs by MTT assay relative to control; format: toxicity, cell-based; details: dose 64 µg/ml

| SMILES | MIC [1] | MIC [2] | MIC [3] | MIC [4] | MIC [5] | MIC [6] | MHC [7] | MIC [8] | Activity [9] | half-life [14] | Activity [15] | MIC [16] | MIC [17] | MIC [18] | MIC [19] | MIC [20] | MIC [21] | further results |
| --- | --- | --- | --- | --- | --- | --- | --- | --- | --- | --- | --- | --- | --- | --- | --- | --- | --- | --- |
| CC(C)[C@H](N)C(=O)N[C@@H](CCCCN)C(=O)N[C@@H](CCCNC(=N)N)C(=O)N[C@@H](Cc1ccccc1)C(=O)N[C@@H](CCCCN)C(=O)N[C@H]1CCCCNCC#CCNCCCC[C@@H](C(=O)N[C@@H](Cc2ccccc2)C(=O)N[C@@H](CCCCN)C(=O)N[C@@H](CCCCN)C(=O)N[C@@H](Cc2ccccc2)C(=O)N[C@H](C(N)=O)C(C)C)NC(=O)[C@H](CCCNC(=N)N)NC(=O)[C@H](Cc2ccccc2)NC(=O)[C@H](Cc2ccccc2)NC1=O | 4 µg/mL (≈ 1.92 µM) | 2 µg/mL (≈ 0.96 µM) | 2 µg/mL (≈ 0.96 µM) | 16 µg/mL (≈ 7.68 µM) | 2 µg/mL (≈ 0.96 µM) | 16 µg/mL (≈ 7.68 µM) | > 128 µg/mL | 8 µg/mL | Toxic | – | – | – | – | – | – | – | – | – |
| CC(C)[C@H](N)C(=O)N[C@@H](CCCCN)C(=O)N[C@@H](CCCNC(=N)N)C(=O)N[C@@H](Cc1ccccc1)C(=O)N[C@@H](CCCCN)C(=O)N[C@H]1CCCCNCc2ccccc2CNCCCC[C@@H](C(=O)N[C@@H](Cc2ccccc2)C(=O)N[C@@H](CCCCN)C(=O)N[C@@H](CCCCN)C(=O)N[C@@H](Cc2ccccc2)C(=O)N[C@H](C(N)=O)C(C)C)NC(=O)[C@H](CCCNC(=N)N)NC(=O)[C@H](Cc2ccccc2)NC(=O)[C@H](Cc2ccccc2)NC1=O | 2 µg/mL (≈ 0.937 µM) | 2 µg/mL (≈ 0.937 µM) | 4 µg/mL (≈ 1.87 µM) | 8 µg/mL (≈ 3.75 µM) | 4 µg/mL (≈ 1.87 µM) | 8 µg/mL (≈ 3.75 µM) | 32 µg/mL | 8 µg/mL | Toxic | 16 h | Toxic | 2 µg/mL (≈ 0.937 µM) | 4 µg/mL (≈ 1.87 µM) | 16 µg/mL (≈ 7.5 µM) | 2 µg/mL (≈ 0.937 µM) | 8 µg/mL (≈ 3.75 µM) | 4 µg/mL (≈ 1.87 µM) | Activity [10]: Active; Activity [11]: Active; Activity [12]: 27%; Activity ([13]; DDE = dose-dependent effect): Dde; Activity [22]: Active; Activity [23]: Active; Activity [24]: Active; Activity [25]: Active |
| CC(C)[C@H](N)C(=O)N[C@H]1CCCCNCc2ccccc2CNCCCC[C@@H](C(=O)N[C@@H](Cc2ccccc2)C(=O)N[C@@H](Cc2ccccc2)C(=O)N[C@@H](CCCNC(=N)N)C(=O)N[C@@H](CCCCN)C(=O)N[C@@H](Cc2ccccc2)C(=O)N[C@@H](CCCCN)C(=O)N[C@@H](CCCCN)C(=O)N[C@@H](Cc2ccccc2)C(=O)N[C@H](C(N)=O)C(C)C)NC(=O)[C@H](CCCCN)NC(=O)[C@H](Cc2ccccc2)NC(=O)[C@H](CCCNC(=N)N)NC1=O | 8 µg/mL (≈ 3.75 µM) | 4 µg/mL (≈ 1.87 µM) | 16 µg/mL (≈ 7.5 µM) | 16 µg/mL (≈ 7.5 µM) | 8 µg/mL (≈ 3.75 µM) | 16 µg/mL (≈ 7.5 µM) | > 128 µg/mL | 128 µg/mL | Toxic | – | Non-Toxic | – | – | – | – | – | – | – |
| CC(C)[C@H](N)C(=O)N[C@H]1CCCCNCC#CCNCCCC[C@@H](C(=O)N[C@@H](Cc2ccccc2)C(=O)N[C@@H](Cc2ccccc2)C(=O)N[C@@H](CCCNC(=N)N)C(=O)N[C@@H](CCCCN)C(=O)N[C@@H](Cc2ccccc2)C(=O)N[C@@H](CCCCN)C(=O)N[C@@H](CCCCN)C(=O)N[C@@H](Cc2ccccc2)C(=O)N[C@H](C(N)=O)C(C)C)NC(=O)[C@H](CCCCN)NC(=O)[C@H](Cc2ccccc2)NC(=O)[C@H](CCCNC(=N)N)NC1=O | 8 µg/mL (≈ 3.84 µM) | 4 µg/mL (≈ 1.92 µM) | 8 µg/mL (≈ 3.84 µM) | 16 µg/mL (≈ 7.68 µM) | 4 µg/mL (≈ 1.92 µM) | 16 µg/mL (≈ 7.68 µM) | > 128 µg/mL | 128 µg/mL | Toxic | – | – | – | – | – | – | – | – | – |
| CC(C)[C@H](N)C(=O)N[C@@H](CCCCN)C(=O)N[C@@H](CCCNC(=N)N)C(=O)N[C@@H](Cc1ccccc1)C(=O)N[C@@H](CCCCN)C(=O)N[C@@H](CCCCN)C(=O)N[C@@H](Cc1ccccc1)C(=O)N[C@@H](Cc1ccccc1)C(=O)N[C@@H](CCCNC(=N)N)C(=O)N[C@@H](CCCCN)C(=O)N[C@@H](Cc1ccccc1)C(=O)N[C@@H](CCCCN)C(=O)N[C@@H](CCCCN)C(=O)N[C@@H](Cc1ccccc1)C(=O)N[C@H](C(N)=O)C(C)C (H-VKRFKKFFRKFKKFV-NH2) | 8 µg/mL (≈ 3.94 µM) | 4 µg/mL (≈ 1.97 µM) | 16 µg/mL (≈ 7.87 µM) | 8 µg/mL (≈ 3.94 µM) | 2 µg/mL (≈ 0.984 µM) | 16 µg/mL (≈ 7.87 µM) | > 128 µg/mL | – | Toxic | 2.5 h | – | 8 µg/mL (≈ 3.94 µM) | 32 µg/mL (≈ 15.7 µM) | 128 µg/mL (≈ 63 µM) | 4 µg/mL (≈ 1.97 µM) | 4 µg/mL (≈ 1.97 µM) | 8 µg/mL (≈ 3.94 µM) | Activity [26]: Active; Activity [27]: Active; Activity [28]: Active; Activity ([12]; DDE = dose-dependent effect): Dde; Activity [13]: 11%; Activity [29]: Active |
| CC(C)[C@H](N)C(=O)N[C@H]1CCCCNC/C=C/CNCCCC[C@@H](C(=O)N[C@@H](Cc2ccccc2)C(=O)N[C@@H](Cc2ccccc2)C(=O)N[C@@H](CCCNC(=N)N)C(=O)N[C@@H](CCCCN)C(=O)N[C@@H](Cc2ccccc2)C(=O)N[C@@H](CCCCN)C(=O)N[C@@H](CCCCN)C(=O)N[C@@H](Cc2ccccc2)C(=O)N[C@H](C(N)=O)C(C)C)NC(=O)[C@H](CCCCN)NC(=O)[C@H](Cc2ccccc2)NC(=O)[C@H](CCCNC(=N)N)NC1=O (H-V[X1]RFK[X1]FFRKFKKFV-NH2; staple (E) 2-6) | 4 µg/mL (≈ 1.92 µM) | 2 µg/mL (≈ 0.959 µM) | 16 µg/mL (≈ 7.68 µM) | 8 µg/mL (≈ 3.84 µM) | 4 µg/mL (≈ 1.92 µM) | 16 µg/mL (≈ 7.68 µM) | > 128 µg/mL | 128 µg/mL | Toxic | – | – | – | – | – | – | – | – | Activity [30]: Toxic |
